2 compounds from US11591309B2, “Manufacturing method for and insecticidal compositions comprising thiocyclam hydrochloride” (Arysta L[…] America, LLC, priority 2016, dated 2023) can be followed below.

What all share (assay type): in vivo
Series [1] deals with Codling moth, Cydiapomonella—neonate larvae. Put plainly: Codling moth neonate larvae bioassay by diet incorporation, mortality. The settings on record: for LC50: Cydia pomonella, 48 h; for LC50 / LC90: mortality 2 days after treatment (D + 2), diet incorporation. The text has this: Codling moth, Cydiapomonella—neonate larvae • Bioassay by diet incorporation • Mortality assessment 2 days after treatment • a.i. refers to active ingredient
(§1) LC stands for “Lethal Concentration”. LC values refer to the concentration of a chemical required to kill a certain proportion of a population of pests. The concentration of the chemical that kills 50 percent of the pests during the observation period is the LC50 value and a concentration that kills 90 percent of a population is LC90.

Series [2] deals with Soybean looper, Chrysodeixis includens—3rd larval stage. As to the kind of experiment: Soybean looper 3rd larval stage bioassay by diet surface incorporation, mortality.
Description: Soybean looper, Chrysodeixis includens—3rd larval stage • Bioassay by diet surface incorporation • Mortality assessment 3 days after treatment • a.i. refers to active ingredient
as §1

In series [3] the test system is Aphids Myzus persicae—larvae. Put plainly: Aphid larvae on radish, boom sprayer application (IRAC no 019 adapted), mortality. The text has this: Aphids Myzus persicae—larvae • Study based on IRAC no 019 methods, application method adapted • Plant: radish • Application on petri dish with larvae with a boom sprayer apparatus • Assessment of mortality 3 and 4 days after application • a.i. refers to active ingredient
(§2) LD stands for “Lethal Dose”. LD50 is the amount of an ingested substance that kills 50 percent of a test sample and […] is the lethal dose that kills 90 percent of the test sample.

Series [4] relates to White flies, Trialeurodes vaporarium—larvae. Put plainly: White fly larvae on bean, boom sprayer application (IRAC no 015 adapted), mortality. The note with it: for LD50 / LD90: boom sprayer.
Description: White flies, Trialeurodes vaporarium—larvae • Study based on IRAC no 015 methods, stage and application method adapted • Plant: bean • Application: On the petri dish with larvae with a boom sprayer apparatus • Assessment of mortality at 7, 9 and 14 days after application • a.i. refers to active ingredient
as §2

The mark [5] stands for this setting: mortality 3 days after treatment (D + 3), diet surface incorporation.

Turning to `CN(C)C(CSC(N)=O)CSC(N)=O` [Cartap, S, S-[2-(dimethylamino)-1,3-propanediyl] dicarbamothioate, reference compound], in series [1], the median lethal concentration (LC50) was determined as 10.1 µg/mL. The figures for the LC90 in series [1] and in series [2] (setting [5]) were 104.80 μg of a.i./ml of diet and 908,897 μg of a.i./ml of diet, respectively. In addition, the LD50 in series [3] (D +3, radish) is on record as <18.18 g a.i./ha; in series [3] (D +4, radish) it was <18.18 g a.i./ha; in series [4] (D +7, bean) it was 213.7 g a.i./ha; in series [4] (D +9, bean), 15.6 g a.i./ha; in series [4] (D +14, bean), 10.4 g a.i./ha. In addition, the LD90 in series [3] (D +3, radish) was 36.70 g a.i./ha; in series [3] (D +4, radish), 16 g a.i./ha; in series [4] (D +7, bean) it was 2.3 × 10^6 g a.i./ha; in series [4] (D +9, bean) it was 4,566.3 g a.i./ha; in series [4] (D +14, bean), 910.4 g a.i./ha.
For `CN(C)C1CSSSC1.Cl` [Thiocyclam HCl, N,N-dimethyl-1,2,3-trithian-5-ylamine hydrochloride], the 50% lethal concentration (LC50) came out at 2.57 µg/mL in series [1] and 8990 µg/mL in series [2] (72 h, mortality 3 days after treatment (D + 3), diet surface incorporation). The “LC50 and LC90 compared to thiocyclam oxalate” value in series [1] (example 1, comparison in words) was “significantly lower concentrations than thiocyclam oxalate”. In addition, in series [1] (example 1, ratio versus cartap), the “times less at LC50 compared to cartap” value was “approximately 4 times”. Further, the “times less at LC90 compared to cartap” value in series [1] (example 1, ratio versus cartap) is reported as “approximately 9 times”. Moreover, the values for the LC90 in series [1] and in series [2] (setting [5]) were 10.80 μg of a.i./ml of diet and 251,759 μg of a.i./ml of diet, respectively. Besides, the “LC90 compared to cartap” value in series [2] (example 2, comparison in words) is on record as “more than three times lower”. Also, the “LC90 compared to thiocyclam oxalate” value in series [2] (example 2, comparison in words) is on record as “orders of magnitude smaller”. Further, the “times less at LC50 than cartap” value in series [2] (example 2, ratio versus cartap) is listed as “approximately 6 times”. Moreover, the “times less at LC50 than thiocyclam oxalate” value in series [2] (example 2, ratio versus thiocyclam oxalate) is “approximately 20 times”. Also, the LD50 in series [3] (D +3, radish) is recorded as 12.04 g a.i./ha; in series [3] (D +4, radish), 7.66 g a.i./ha; in series [4] (D +7, bean), 2.22 g a.i./ha; in series [4] (D +9, bean), 2.23 g a.i./ha; in series [4] (D +14, bean) it was 0.82 g a.i./ha. Further, the LD90 in series [3] (D +3, radish) is recorded as 30.51 g a.i./ha; in series [3] (D +4, radish) it was 27.07 g a.i./ha; in series [4] (D +7, bean) it was 1,899 g a.i./ha; in series [4] (D +9, bean), 4,905 g a.i./ha; in series [4] (D +14, bean) it was 7,910 g a.i./ha. Moreover, the “LD90 compared to cartap” value in series [4] (example 4, days 7 and 9) was “lower application concentration compared to cartap”.

By LC50 is commonly meant the concentration lethal to half of the exposed cells or organisms.
